# Results as given in paper PMC5740067 (Scientific Reports, 2017).
# “Also recorded” adds a separate entry of the source. Like-named read-outs stand apart in the source and are kept apart here.
# Columns and labels:
# [1] = target: T1, OccJ WT (Agrobacterium tumefaciens, UniProt P0A4F8); assay: biochemical; assay type: binding
# T1 construct: The mature PBP OccJ (256 aa without the signal peptide) expression plasmid was obtained by cloning the occJ gene lacking the first twenty residues; hexahistidine (C); made in house; host or cells: E. coli BL21
# T1 sequence (P0A4F8 21-276): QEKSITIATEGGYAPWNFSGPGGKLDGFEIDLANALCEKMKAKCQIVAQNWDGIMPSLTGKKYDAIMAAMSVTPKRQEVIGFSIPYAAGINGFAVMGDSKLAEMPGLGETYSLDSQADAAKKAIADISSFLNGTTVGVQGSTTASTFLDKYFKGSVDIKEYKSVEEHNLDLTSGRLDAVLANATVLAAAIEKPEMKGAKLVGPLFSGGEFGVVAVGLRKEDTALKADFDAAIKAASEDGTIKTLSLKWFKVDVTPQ
# Protocol: (§1) Binding of ligands to OccJ, NocT, LAO and protein mutants was monitored by autofluorescence by exciting the protein at a wavelength of 295 nm and monitoring the quenching of fluorescence emission of tryptophans at 335 nm. All experiments were performed at 20 °C in 96 wells plates (1/2 Area Plate-96F, Perkin Elmer) using Tecan Infinite M1000 reader (Tecan), in 50 mM Tris-HCl pH 8.0, 150 mM NaCl buffer with a fixed amount of proteins (1 µM) and increasing concentrations of ligand. […] The data were analysed using Origin® 7 software and fitted to the equation f = ΔFluorescencemax * abs(x)/(K D + abs(x)).
# [2] = target: T2, NocT WT (Agrobacterium fabrum, UniProt P35120); conditions: fluorescence titration; octopine and nopaline; ref [6],[14]; read-out: K D (F); cited from earlier work
# T2 construct: Cloning of mature OccJ, NocT-G97S, OccJ-S91G, OccJ-N202D, LAO and LAO-Q122A; made in house
# T2 sequence (P35120 26-283): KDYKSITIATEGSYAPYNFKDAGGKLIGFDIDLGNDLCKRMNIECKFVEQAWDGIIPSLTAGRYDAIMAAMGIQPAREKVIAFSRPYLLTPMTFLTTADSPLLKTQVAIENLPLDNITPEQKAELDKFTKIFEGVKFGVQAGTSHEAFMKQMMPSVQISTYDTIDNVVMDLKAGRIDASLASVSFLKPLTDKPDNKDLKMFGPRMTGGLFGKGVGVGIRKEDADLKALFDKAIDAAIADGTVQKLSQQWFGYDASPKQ
# [3] = target: T3, NocT G97S (Agrobacterium fabrum, UniProt P35120, G97S); assay type: binding, Agrobacterium tumefaciens; conditions: intrinsic protein fluorescence titration, 20 °C, pH 8.0
# T3 construct: Cloning of mature OccJ, NocT-G97S, OccJ-S91G, OccJ-N202D, LAO and LAO-Q122A; made in house; host or cells: E. coli BL21
# T3 sequence (P35120 26-283 G97S): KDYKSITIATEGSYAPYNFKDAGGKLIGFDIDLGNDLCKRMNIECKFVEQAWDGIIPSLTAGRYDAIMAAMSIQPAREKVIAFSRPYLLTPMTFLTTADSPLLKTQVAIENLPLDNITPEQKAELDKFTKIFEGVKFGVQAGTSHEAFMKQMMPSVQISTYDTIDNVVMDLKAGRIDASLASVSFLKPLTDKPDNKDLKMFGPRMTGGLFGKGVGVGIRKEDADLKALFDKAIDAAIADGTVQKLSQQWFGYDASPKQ
# [4] = target: T4, OccJ S91G (Agrobacterium tumefaciens, UniProt P0A4F8, S91G); assay: OccJ S91G ligand binding, fluorescence titration; conditions: intrinsic protein fluorescence titration
# T4 construct: The mature LAO expression plasmid, LAO-Q122A, OccJ-S91G and OccJ-N202D were chemically synthesized; pET-28a); host or cells: E. coli BL21
# T4 sequence (P0A4F8 21-276 S91G): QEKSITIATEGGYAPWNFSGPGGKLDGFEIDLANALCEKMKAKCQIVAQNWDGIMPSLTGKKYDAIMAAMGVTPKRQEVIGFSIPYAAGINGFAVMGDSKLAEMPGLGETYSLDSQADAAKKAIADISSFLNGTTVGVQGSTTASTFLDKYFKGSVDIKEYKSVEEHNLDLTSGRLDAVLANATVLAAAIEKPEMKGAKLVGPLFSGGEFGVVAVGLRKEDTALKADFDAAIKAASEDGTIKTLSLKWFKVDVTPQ
# Protocol: as §1
# [5] = target: T2, NocT WT; assay type: binding, Agrobacterium tumefaciens; conditions: fluorescence titration; 20 °C; pH 8.0; octopine family members and analogues; read-out: Kd (F)
# Protocol: as §1
# [6] = target: T1, OccJ WT; assay: OccJ WT ligand binding, isothermal titration microcalorimetry; conditions: ITC, 20 °C
# Protocol: (§2) Isothermal titration microcalorimetry experiments were performed with an ITC200 isothermal titration calorimeter from MicroCal (GE Healthcare). The experiments were carried out at 20 °C. Protein concentration in the microcalorimeter cell (0.2 mL) varied from 20 to 150 µM. Nineteen injections of 2 µL of ligand solution (amino acids, opines and octopine derivatives) at concentration ranging from 240 µM to 1.5 mM were performed at intervals of 180 s while stirring at 500 rpm. The experimental data were fitted to theoretical titration curves with software supplied by MicroCal (ORIGIN®). This software uses the relationship between the heat generated by each injection and ΔH (enthalpy change in kcal/mol), Ka (the association binding constant in M^−1), n (the number of binding sites), total protein concentration and free and total ligand concentrations.
# [7] = target: T2, NocT WT; assay type: binding, Agrobacterium tumefaciens; conditions: ITC, 20 °C
# Protocol: as §2
# [8] = target: T4, OccJ S91G; assay type: binding; conditions: ITC, 20 °C
# Protocol: as §2
# [9] = target: T5, OccJ N202D (Agrobacterium tumefaciens, UniProt P0A4F8, N202D); assay type: binding; conditions: ITC, 20 °C
# T5 construct: The mature LAO expression plasmid, LAO-Q122A, OccJ-S91G and OccJ-N202D were chemically synthesized; pET-28a); host or cells: E. coli BL21
# T5 sequence (P0A4F8 21-276 N202D): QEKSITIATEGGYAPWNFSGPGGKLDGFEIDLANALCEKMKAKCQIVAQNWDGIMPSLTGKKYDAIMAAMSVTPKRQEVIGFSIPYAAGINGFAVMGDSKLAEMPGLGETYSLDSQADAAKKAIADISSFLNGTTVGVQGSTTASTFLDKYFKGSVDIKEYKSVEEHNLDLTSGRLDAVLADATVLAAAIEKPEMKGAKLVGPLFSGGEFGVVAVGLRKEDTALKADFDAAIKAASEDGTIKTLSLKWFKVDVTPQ
# Protocol: as §2
# [10] = target: T3, NocT G97S; assay type: binding, Agrobacterium tumefaciens; conditions: ITC, 20 °C
# Protocol: as §2
# [11] = target: T6, LAO Q122A (Salmonella typhimurium, UniProt P02911, Q144A); assay: LAO Q122A ligand binding, ITC; set-up: species or system Salmonella enterica; conditions: ITC, 20 °C
# T6 construct: The mature LAO expression plasmid, LAO-Q122A, OccJ-S91G and OccJ-N202D were chemically synthesized; pET-28a); host or cells: E. coli BL21
# T6 sequence (P02911 23-260 Q144A): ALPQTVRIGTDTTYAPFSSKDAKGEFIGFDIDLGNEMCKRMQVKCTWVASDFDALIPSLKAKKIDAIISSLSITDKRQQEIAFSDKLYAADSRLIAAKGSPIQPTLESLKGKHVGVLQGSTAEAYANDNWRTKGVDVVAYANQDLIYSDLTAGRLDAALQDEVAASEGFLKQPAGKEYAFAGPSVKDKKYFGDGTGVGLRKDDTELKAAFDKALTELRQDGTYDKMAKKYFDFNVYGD
# Protocol: as §2
# [12] = tested on: NocT G97S; assay type: binding, Agrobacterium tumefaciens
# [13] = target: T7, LAO WT (Salmonella typhimurium, UniProt P02911); assay: biochemical; assay type: binding, Salmonella enterica; conditions: ITC, 20 °C
# T7 construct: The mature LAO expression plasmid, LAO-Q122A, OccJ-S91G and OccJ-N202D were chemically synthesized; pET-28a); host or cells: E. coli BL21
# T7 sequence (P02911 23-260): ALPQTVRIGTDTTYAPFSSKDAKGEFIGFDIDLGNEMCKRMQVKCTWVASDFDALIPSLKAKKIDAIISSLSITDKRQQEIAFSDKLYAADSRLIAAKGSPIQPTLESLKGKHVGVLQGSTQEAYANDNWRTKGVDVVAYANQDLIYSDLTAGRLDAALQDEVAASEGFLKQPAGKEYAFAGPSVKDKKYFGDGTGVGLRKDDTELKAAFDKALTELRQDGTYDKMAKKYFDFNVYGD
# Protocol: as §2
# [14] = target: T5, OccJ N202D; assay type: binding; conditions: intrinsic protein fluorescence titration; 20 °C; pH 8.0; read-out: K D (F)
# [15] = target: T2, NocT WT; conditions: ITC; octopine; ref [6],[14]; read-out: K D (ITC) (converted); cited from earlier work
# [16] = target: LAO; set-up: method as in PMID 1400387; conditions: ref [20]; cited from earlier work
# [17] = intrinsic protein fluorescence titration, 20 °C, 50 mM Tris-HCl pH 8.0, 150 mM NaCl, 1 µM protein, read-out: K D (F)
# [18] = fluorescence titration, read-out: apparent dissociation constant K D
molecule,measurement,setting,value
NC(N)=NCCC[C@H](N[C@H](CCC(=O)O)C(=O)O)C(=O)O [nopaline],K D (F),"[1]; intrinsic protein fluorescence titration, 20 °C, 50 mM Tris-HCl pH 8.0, 150 mM NaCl, 1 µM protein",No fluorescence intensity change was detected; also recorded: no interaction
same,Kd,[2],3.7 ± 0.6 µM
same,K D (F),[3],abolished the nopaline binding ability
same,K D (F),"[4]; 20 °C, pH 8.0",not a ligand
NC(N)=NCCC[C@H](NCC(=O)O)C(=O)O [noroctopine],Kd,[1]; [17],0.19 ± 0.05 µM
same,fold better affinity of OccJ compared with arginine or ornithine alone,[1]; opine analogue versus its amino acid,10 fold
same,Kd,[5],33.4 ± 2.7 µM
same,Enthalpy (ΔH),[6],-4.804 kcal/mol
same,Entropic contribution (-TΔS),[6],-4.367 kcal/mol
same,Entropy (ΔS),[6],14.8 cal/mol/deg
same,Free enthalpy (ΔG),[6],-9.171 kcal/mol
same,Kd,[6],0.15 ± 0.01 µM
same,Enthalpy (ΔH),[7],0.872 kcal/mol
same,Entropic contribution (-TΔS),[7],-6.39 kcal/mol
same,Entropy (ΔS),[7],21.8 cal/mol/deg
same,Free enthalpy (ΔG),[7],-5.518 kcal/mol
same,Kd,[7],78 ± 9 µM
NCCC[C@H](NCC(=O)O)C(=O)O [noroctopinic acid],Kd,[5],19.3 ± 1.37 µM
same,Enthalpy (ΔH),[6],-7.202 kcal/mol
same,Entropic contribution (-TΔS),[6],-1.934 kcal/mol
same,Entropy (ΔS),[6],6.60 cal/mol/deg
same,Free enthalpy (ΔG),[6],-9.136 kcal/mol
same,Kd,[6],0.15 ± 0.01 µM
same,Enthalpy (ΔH),[7],0.62 kcal/mol
same,Entropic contribution (-TΔS),[7],-6.83 kcal/mol
same,Entropy (ΔS),[7],23.3 cal/mol/deg
same,Free enthalpy (ΔG),[7],-6.21 kcal/mol
same,Kd,[7],23 ± 5 µM
C[C@@H](N[C@@H](CCCN=C(N)N)C(=O)O)C(=O)O [octopine],Enthalpy (ΔH),[8],-0.726 kcal/mol
same,Entropic contribution (-TΔS),[8],-5.569 kcal/mol
same,Entropy (ΔS),[8],19 cal/mol/deg
same,Free enthalpy (ΔG),[8],-6.295 kcal/mol
same,Kd,[8],20 µM
same,Enthalpy (ΔH),[9],-4.12 kcal/mol
same,Entropic contribution (-TΔS),[9],-6.345 kcal/mol
same,Entropy (ΔS),[9],21.5 cal/mol/deg
same,Free enthalpy (ΔG),[9],-10.465 kcal/mol
same,Kd,[9],0.016 µM
same,Kd,[1]; [18],0.004 ± 0.001 µM
same,Kd,[1]; [17],0.004 ± 0.0001 µM
same,Kd,[2],6.1 ± 0.7 µM
same,Enthalpy (ΔH),[6],-4.837 kcal/mol
same,Entropic contribution (-TΔS),[6],-5.98 kcal/mol
same,Entropy (ΔS),[6],20.4 cal/mol/deg
same,Free enthalpy (ΔG),[6],-10.817 kcal/mol
same,Kd,[6],0.009 µM
same,Enthalpy (ΔH),[10],0.687 kcal/mol
same,Entropic contribution (-TΔS),[10],-6.42 kcal/mol
same,Entropy (ΔS),[10],21.9 cal/mol/deg
same,Free enthalpy (ΔG),[10],-5.733 kcal/mol
same,Kd,[10],52 µM
same,Enthalpy (ΔH),[11],-3.318 kcal/mol
same,Entropic contribution (-TΔS),[11],-2.673 kcal/mol
same,Entropy (ΔS),[11],9.12 cal/mol/deg
same,Free enthalpy (ΔG),[11],-5.991 kcal/mol
same,Kd,[11]; read-out: K D (ITC),34 ± 5 µM
same,fold lower affinity of NocT G97S compared with the WT,[12],10 fold
same,Kd,[3]; read-out: K D (F),63.8 ± 13.8 µM
same,fold lower affinity of OccJ-S91G than OccJ,[4],"over 7,000 fold"
same,Kd,"[4]; 20 °C, pH 8.0, read-out: K D (F)",29.9 ± 3.8 µM
same,K D (ITC),[13],No interaction; also recorded: cannot bind
same,Kd,[14],0.006 ± 0.001 µM
same,Kd,[15],9.9 µM
C[C@@H](N[C@@H](CCCN)C(=O)O)C(=O)O [octopinic acid],Kd,[1]; [18],0.017 ± 0.003 µM
same,Kd,[1]; [17],0.017 ± 0.003 µM
same,Kd,[5],1.8 ± 0.3 µM
same,Enthalpy (ΔH),[6],-9.547 kcal/mol
same,Entropic contribution (-TΔS),[6],-0.41 kcal/mol
same,Entropy (ΔS),[6],1.40 cal/mol/deg
same,Free enthalpy (ΔG),[6],-9.957 kcal/mol
same,Kd,[6],0.038 ± 0.007 µM
same,Enthalpy (ΔH),[7],-3.658 kcal/mol
same,Entropic contribution (-TΔS),[7],-3.517 kcal/mol
same,Entropy (ΔS),[7],12.0 cal/mol/deg
same,Free enthalpy (ΔG),[7],-7.175 kcal/mol
same,Kd,[7],4.4 ± 0.4 µM
NCCC[C@H](N)C(=O)O [ornithine],Kd,[1],31.2 ± 3.5 µM
same,Enthalpy (ΔH),[6],-1.102 kcal/mol
same,Entropic contribution (-TΔS),[6],-4.778 kcal/mol
same,Entropy (ΔS),[6],16.3 cal/mol/deg
same,Free enthalpy (ΔG),[6],-5.88 kcal/mol
same,Kd,[6],40.5 µM
same,K D (F),"[4]; 20 °C, pH 8.0",can no longer bind
same,previous reported affinity,[16],nanomolar range
homo-octopine,Enthalpy (ΔH),[6],-7.611 kcal/mol
same,Entropic contribution (-TΔS),[6],-0.806 kcal/mol
same,Entropy (ΔS),[6],2.75 cal/mol/deg
same,Free enthalpy (ΔG),[6],-8.417 kcal/mol
same,Enthalpy (ΔH),[7],-3.832 kcal/mol
same,Entropic contribution (-TΔS),[7],-2.222 kcal/mol
same,Entropy (ΔS),[7],7.58 cal/mol/deg
same,Free enthalpy (ΔG),[7],-6.054 kcal/mol
